Literature values in paper PMC7211198, “Phase 1b study of a small molecule antagonist of human chemokine (C-C motif) receptor 2 (PF-04136309) in combination with nab-paclitaxel/gemcitabine in first-line treatment of metastatic pancreatic ductal adenocarcinoma” (Investigational New Drugs, 2019).
Where two headings read alike, the source gives them in different places.

Test system: advanced pancreatic cancer
Settings: cited from earlier work

SMILES: Nc1ccn([C@@H]2O[C@H](CO)[C@@H](O)C2(F)F)c(=O)n1 [gemcitabine]
- Observed rate of pneumonitis (gemcitabine combined with nab-paclitaxel): up to 4%
- Observed rate of pneumonitis (patients treated with gemcitabine): approximately 1%
